Test system: adult male rabbits of the animal strain HsdHHL Watanables
Test: Erection (length of the protruding penis) in hypercholesterolemic rabbits after cGMP PDE inhibitor, with or without antilipemic pretreatment
Type: in vivo, rabbit
Conditions: cerivastatin sodium 1 mg/kg s.c. for 7 days
Procedure: In a placebo-controlled study, twelve adult male rabbits of the animal strain HsdHHL Watanables having a body weight of 3-5 kg, which, owing to breeding, suffer from hypercholesterolemia and arteriosclerosis, were treated with a selective cGMP PDE inhibitor (3 mg/kg, intravenously).
The animals had free access to water and, for 2 hours per day, to feed. The animals were kept in a 10/14 hour day/night rhythm (light on from 8 am onwards), and the ambient temperature was 22 to 24° C.
The selective cGMP PDE inhibitor used was 2-[2-ethoxy-5-(4-ethyl-piperazine-1-sulfonyl)-phenyl]-5-methyl-7-propyl-3H-imidazo[5,1-f][1,2,4]triazin-4-one hydrochloride trihydrate (Ex. 336 of WO-A-99/24433).
For intravenous injection, the PDE inhibitor was dissolved in physiological saline (0.9% by volume).
For seven days prior to the treatment with the PDE inhibitor, i.e. for 7 successive days, an antilipemic, i.e. cerivastatin sodium (i.e. the monosodium salt of cerivastatin) was administered subcutaneously to six of the twelve rabbits (1 mg/kg of body weight, cerivastatin sodium dissolved in physiological saline). […]
The erection was evaluated by measuring the length of the protruding penis using a vernier caliper. […] To this end, the animals were in each case removed from the cage, held by neck hair and hind legs, turned onto their back and measured. […]

For `COCc1c(C(C)C)nc(C(C)C)c(/C=C/[C@@H](O)C[C@@H](O)CC(=O)O)c1-c1ccc(F)cc1` [cerivastatin sodium], the “erection 1 day after the cerivastatin sodium pretreatment had ended compared with 3 days after (FIG. 2, upper vs middle curve)” value (then PDE inhibitor 3 mg/kg i.v., 1 day vs 3 days after end of pretreatment) was “still more pronounced” and the “erection after administration of the PDE inhibitor, compared with rabbits not pretreated with the antilipemic (FIG. 2)” value (then PDE inhibitor (Ex. 336 of WO-A-99/24433) 3 mg/kg i.v. 1 day and 3 days after pretreatment ended, measured 5-120 min, control saline pretreatment) was “considerably more pronounced erection”.

From patent US20060189624A1, “Novel combination for treating sexual dysfunction” (Bayer Aktiengesellschaft, priority 1999, published 2006)
